From BindingDB's records for doi:10.1021/jm980217s (Abbott Laboratories, 1998)

Experiment: Binding affinity for endothelin B receptor by measuring its ability to displace [125I]-ET-3 from porcine cerebellar tissue

Row | IC50 | SMILES
1 | 36 µM | CCCCN(CCCC)C(=O)CN1C[C@H](c2ccc3c(c2)OCO3)[C@@H](C(=O)O)[C@@H]1C(C)(C)CCCC [(2R,3R,4S)-4-Benzo[1,3]dioxol-5-yl-1-dibutylcarbamoylmethyl-2-(1,1-dimethyl-pentyl)-pyrrolidine-3-carboxylic acid]
2 | 64 µM | CCCCN(CCCC)C(=O)CN1C[C@H](c2ccc3c(c2)OCO3)[C@@H](C(=O)O)[C@@H]1CC(C)(C)C=C(C)C [(2S,3R,4S)-4-Benzo[1,3]dioxol-5-yl-1-dibutylcarbamoylmethyl-2-(2,2,4-trimethyl-pent-3-enyl)-pyrrolidine-3-carboxylic acid]
3 | 62 µM | CCCCN(CCCC)C(=O)CN1C[C@H](c2ccc3c(c2)OCO3)[C@@H](C(=O)O)[C@@H]1CC(C)(C)CCC [(2S,3R,4S)-4-Benzo[1,3]dioxol-5-yl-1-dibutylcarbamoylmethyl-2-(2,2-dimethyl-pentyl)-pyrrolidine-3-carboxylic acid]
4 | 62 µM | CCCCN(CCCC)C(=O)CN1C[C@H](c2ccc3c(c2)OCO3)[C@@H](C(=O)O)[C@@H]1CCC1OCCCO1 [(2S,3R,4S)-4-Benzo[1,3]dioxol-5-yl-1-dibutylcarbamoylmethyl-2-(2-[1,3]dioxan-2-yl-ethyl)-pyrrolidine-3-carboxylic acid]
5 | > 100 µM | CCCCN(CCCC)C(=O)CN1C[C@H](c2ccc3c(c2)OCO3)[C@@H](C(=O)O)[C@@H]1CC(C)(C)C1OCCO1 [(2S,3R,4S)-4-Benzo[1,3]dioxol-5-yl-1-dibutylcarbamoylmethyl-2-(2-[1,3]dioxolan-2-yl-2-methyl-propyl)-pyrrolidine-3-carboxylic acid]
6 | > 100 µM | CCCCN(CCCC)C(=O)CN1C[C@H](c2ccc3c(c2)OCO3)[C@@H](C(=O)O)[C@@H]1CCC1OCCO1 [(2S,3R,4S)-4-Benzo[1,3]dioxol-5-yl-1-dibutylcarbamoylmethyl-2-(2-[1,3]dioxolan-2-yl-ethyl)-pyrrolidine-3-carboxylic acid]
7 | 29.3 µM | CCCCN(CCCC)C(=O)CN1C[C@H](c2ccc3c(c2)OCO3)[C@@H](C(=O)O)[C@@H]1CCC1SCCS1 [(2S,3R,4S)-4-Benzo[1,3]dioxol-5-yl-1-dibutylcarbamoylmethyl-2-(2-[1,3]dithiolan-2-yl-ethyl)-pyrrolidine-3-carboxylic acid]
8 | 47 µM | CCCCN(CCCC)C(=O)CN1C[C@H](c2ccc3c(c2)OCO3)[C@@H](C(=O)O)[C@@H]1CCc1ccco1 [(2S,3R,4S)-4-Benzo[1,3]dioxol-5-yl-1-dibutylcarbamoylmethyl-2-(2-furan-2-yl-ethyl)-pyrrolidine-3-carboxylic acid]
9 | 26 µM | CCCCN(CCCC)C(=O)CN1C[C@H](c2ccc3c(c2)OCO3)[C@@H](C(=O)O)[C@@H]1CCc1ccoc1 [(2S,3R,4S)-4-Benzo[1,3]dioxol-5-yl-1-dibutylcarbamoylmethyl-2-(2-furan-3-yl-ethyl)-pyrrolidine-3-carboxylic acid]
10 | 71 µM | CCCCN(CCCC)C(=O)CN1C[C@H](c2ccc3c(c2)OCO3)[C@@H](C(=O)O)[C@@H]1CC(C)CCC (stereo partly drawn) [(2S,3R,4S)-4-Benzo[1,3]dioxol-5-yl-1-dibutylcarbamoylmethyl-2-(2-methyl-pentyl)-pyrrolidine-3-carboxylic acid]
11 | > 100 µM | CCCCN(CCCC)C(=O)CN1C[C@H](c2ccc3c(c2)OCO3)[C@@H](C(=O)O)[C@@H]1CCc1ncco1 [(2S,3R,4S)-4-Benzo[1,3]dioxol-5-yl-1-dibutylcarbamoylmethyl-2-(2-oxazol-2-yl-ethyl)-pyrrolidine-3-carboxylic acid]
12 | 95 µM | CCCCN(CCCC)C(=O)CN1C[C@H](c2ccc3c(c2)OCO3)[C@@H](C(=O)O)[C@@H]1CC(CCC)CCC [(2S,3R,4S)-4-Benzo[1,3]dioxol-5-yl-1-dibutylcarbamoylmethyl-2-(2-propyl-pentyl)-pyrrolidine-3-carboxylic acid]
13 | 28.6 µM | CCCCN(CCCC)C(=O)CN1C[C@H](c2ccc3c(c2)OCO3)[C@@H](C(=O)O)[C@@H]1CCn1cccn1 [(2S,3R,4S)-4-Benzo[1,3]dioxol-5-yl-1-dibutylcarbamoylmethyl-2-(2-pyrazol-1-yl-ethyl)-pyrrolidine-3-carboxylic acid]
14 | 14.1 µM | CCCCN(CCCC)C(=O)CN1C[C@H](c2ccc3c(c2)OCO3)[C@@H](C(=O)O)[C@@H]1CCc1ccccn1 [(2S,3R,4S)-4-Benzo[1,3]dioxol-5-yl-1-dibutylcarbamoylmethyl-2-(2-pyridin-2-yl-ethyl)-pyrrolidine-3-carboxylic acid]
15 | 50 µM | CCCCN(CCCC)C(=O)CN1C[C@H](c2ccc3c(c2)OCO3)[C@@H](C(=O)O)[C@@H]1CCCC1OCCO1 [(2S,3R,4S)-4-Benzo[1,3]dioxol-5-yl-1-dibutylcarbamoylmethyl-2-(3-[1,3]dioxolan-2-yl-propyl)-pyrrolidine-3-carboxylic acid]
16 | 72 µM | CCCCN(CCCC)C(=O)CN1C[C@H](c2ccc3c(c2)OCO3)[C@@H](C(=O)O)[C@@H]1CCC(CC)CC [(2S,3R,4S)-4-Benzo[1,3]dioxol-5-yl-1-dibutylcarbamoylmethyl-2-(3-ethyl-pentyl)-pyrrolidine-3-carboxylic acid]

Row | IC50 | SMILES
17 | 33.2 µM | CCCCN(CCCC)C(=O)CN1C[C@H](c2ccc3c(c2)OCO3)[C@@H](C(=O)O)[C@@H]1CCC=C(C)C [(2S,3R,4S)-4-Benzo[1,3]dioxol-5-yl-1-dibutylcarbamoylmethyl-2-(4-methyl-pent-3-enyl)-pyrrolidine-3-carboxylic acid]
18 | 36 µM | C=C(C)CCC[C@H]1[C@H](C(=O)O)[C@@H](c2ccc3c(c2)OCO3)CN1CC(=O)N(CCCC)CCCC [(2S,3R,4S)-4-Benzo[1,3]dioxol-5-yl-1-dibutylcarbamoylmethyl-2-(4-methyl-pent-4-enyl)-pyrrolidine-3-carboxylic acid]
19 | 35.8 µM | CCCCN(CCCC)C(=O)CN1C[C@H](c2ccc3c(c2)OCO3)[C@@H](C(=O)O)[C@@H]1CCCC(C)C [(2S,3R,4S)-4-Benzo[1,3]dioxol-5-yl-1-dibutylcarbamoylmethyl-2-(4-methyl-pentyl)-pyrrolidine-3-carboxylic acid]
20 | 34 µM | CCCCN(CCCC)C(=O)CN1C[C@H](c2ccc3c(c2)OCO3)[C@@H](C(=O)O)[C@@H]1CCCCC(F)(F)F [(2S,3R,4S)-4-Benzo[1,3]dioxol-5-yl-1-dibutylcarbamoylmethyl-2-(5,5,5-trifluoro-pentyl)-pyrrolidine-3-carboxylic acid]
21 | 48 µM | C/C=C(\C)CC[C@H]1[C@H](C(=O)O)[C@@H](c2ccc3c(c2)OCO3)CN1CC(=O)N(CCCC)CCCC [(2S,3R,4S)-4-Benzo[1,3]dioxol-5-yl-1-dibutylcarbamoylmethyl-2-((E)-3-methyl-pent-3-enyl)-pyrrolidine-3-carboxylic acid]
22 | 7 µM | CCCCN(CCCC)C(=O)CN1C[C@H](c2ccc3c(c2)OCO3)[C@@H](C(=O)O)[C@@H]1CC/C=C(/C)CC [(2S,3R,4S)-4-Benzo[1,3]dioxol-5-yl-1-dibutylcarbamoylmethyl-2-((Z)-4-methyl-hex-3-enyl)-pyrrolidine-3-carboxylic acid]
23 | 43.6 µM | CCCCN(CCCC)C(=O)CN1C[C@H](c2ccc3c(c2)OCO3)[C@@H](C(=O)O)[C@@H]1CCc1cccn1C [(2S,3R,4S)-4-Benzo[1,3]dioxol-5-yl-1-dibutylcarbamoylmethyl-2-[2-(1-methyl-1H-pyrrol-2-yl)-ethyl]-pyrrolidine-3-carboxylic acid]
24 | > 100 µM | CCCCN(CCCC)C(=O)CN1C[C@H](c2ccc3c(c2)OCO3)[C@@H](C(=O)O)[C@@H]1CCN1C(=O)CCC1=O [(2S,3R,4S)-4-Benzo[1,3]dioxol-5-yl-1-dibutylcarbamoylmethyl-2-[2-(2,5-dioxo-pyrrolidin-1-yl)-ethyl]-pyrrolidine-3-carboxylic acid]
25 | 41 µM | CCCCN(CCCC)C(=O)CN1C[C@H](c2ccc3c(c2)OCO3)[C@@H](C(=O)O)[C@@H]1CCn1ccccc1=O [(2S,3R,4S)-4-Benzo[1,3]dioxol-5-yl-1-dibutylcarbamoylmethyl-2-[2-(2-oxo-2H-pyridin-1-yl)-ethyl]-pyrrolidine-3-carboxylic acid]
26 | 85 µM | CCCCN(CCCC)C(=O)CN1C[C@H](c2ccc3c(c2)OCO3)[C@@H](C(=O)O)[C@@H]1CCN1CCCCC1=O [(2S,3R,4S)-4-Benzo[1,3]dioxol-5-yl-1-dibutylcarbamoylmethyl-2-[2-(2-oxo-piperidin-1-yl)-ethyl]-pyrrolidine-3-carboxylic acid]
27 | 65.4 µM | CCCCN(CCCC)C(=O)CN1C[C@H](c2ccc3c(c2)OCO3)[C@@H](C(=O)O)[C@@H]1CCN1CCCC1=O [(2S,3R,4S)-4-Benzo[1,3]dioxol-5-yl-1-dibutylcarbamoylmethyl-2-[2-(2-oxo-pyrrolidin-1-yl)-ethyl]-pyrrolidine-3-carboxylic acid]
28 | 48 µM | CCCCN(CCCC)C(=O)CN1C[C@H](c2ccc3c(c2)OCO3)[C@@H](C(=O)O)[C@@H]1CCC1OC(C)C(C)O1 (stereo partly drawn) [(2S,3R,4S)-4-Benzo[1,3]dioxol-5-yl-1-dibutylcarbamoylmethyl-2-[2-(4,5-dimethyl-[1,3]dioxolan-2-yl)-ethyl]-pyrrolidine-3-carboxylic acid]
29 | 29.7 µM | CCCCN(CCCC)C(=O)CN1C[C@H](c2ccc3c(c2)OCO3)[C@@H](C(=O)O)[C@@H]1CCc1nc(C)c(C)o1 [(2S,3R,4S)-4-Benzo[1,3]dioxol-5-yl-1-dibutylcarbamoylmethyl-2-[2-(4,5-dimethyl-oxazol-2-yl)-ethyl]-pyrrolidine-3-carboxylic acid]
30 | > 100 µM | CCCCN(CCCC)C(=O)CN1C[C@H](c2ccc3c(c2)OCO3)[C@@H](C(=O)O)[C@@H]1CCC1CCCO1 (stereo partly drawn) [(2S,3R,4S)-4-Benzo[1,3]dioxol-5-yl-1-dibutylcarbamoylmethyl-2-[2-(tetrahydro-furan-2-yl)-ethyl]-pyrrolidine-3-carboxylic acid]
31 | 47.8 µM | CCCCN(CCCC)C(=O)CN1C[C@H](c2ccc3c(c2)OCO3)[C@@H](C(=O)O)[C@@H]1CCC1CCCCO1 (stereo partly drawn) [(2S,3R,4S)-4-Benzo[1,3]dioxol-5-yl-1-dibutylcarbamoylmethyl-2-[2-(tetrahydro-pyran-2-yl)-ethyl]-pyrrolidine-3-carboxylic acid]
32 | > 100 µM | CCCCN(CCCC)C(=O)CN1C[C@H](c2ccc3c(c2)OCO3)[C@@H](C(=O)O)[C@@H]1CCC1CCOCC1 [(2S,3R,4S)-4-Benzo[1,3]dioxol-5-yl-1-dibutylcarbamoylmethyl-2-[2-(tetrahydro-pyran-4-yl)-ethyl]-pyrrolidine-3-carboxylic acid]
